Results: patent US20060074244A1, “Pyridinyl substituted (1,2,3,)triazoles as inhibitors of the tgf-beta signalling pathway” (priority 2002, published 2006)
Values belong to the compound of their own block, whether it stands above or below them.

Key:
[1] = test system: TGF-β signalling (PAI-1 promoter-luciferase in HepG2 cells); assay: Cellular transcriptional assay (PAI-1 promoter luciferase reporter)
Experimental: The assay was performed in HepG2 cells stably transfected with the PAI-1 promoter (known to be a strong TGF-β responsive promoter) linked to a luciferase (firefly) reporter gene. The compounds were selected on their ability to inhibit luciferase activity in cells exposed to TGF-β. In addition, cells were transfected with a second luciferase (Renilla) gene which was not driven by a TGF-13 responsive promoter and was used as a toxicity control.
96 well microplates were seeded, using a multidrop apparatus, with the stably transfected cell line at a concentration of 35000 cells per well in 200 μl of serum-containing medium. These plates were placed in a cell incubator.
18 to 24 hours later (Day 2), cell-incubation procedure was launched. […] Each well contained only one candidate compound and its effect on the PAI-1 promoter was monitored.
Columns 11 and 12 were employed as controls. […] Column 11 was used to determine the ‘reference TGF-β induced firefly luciferase value’ against which values measured in the test wells (to quantify inhibitory activity) were compared. […]
12 to 18 hours later (day 3), the luciferase quantification procedure was launched. […] Following agitation (15 to 30 mins), luciferase activities of the plates were read in a dual-injector luminometer (BMG lumistar). […]

[2] = target: T1, recombinant GST-ALK5 (residues 198-503) (Homo sapiens, UniProt P36897); assay: Alk5 fluorescence polarization assay; assay type: binding; details: displacement of rhodamine green-labelled ligand, 10 nM ALK5; read-out: ALK5 receptor modulator activity (IC50)
T1 construct: assays using recombinant GST-ALK5 (residues 198-503)
T1 sequence (P36897 198-503): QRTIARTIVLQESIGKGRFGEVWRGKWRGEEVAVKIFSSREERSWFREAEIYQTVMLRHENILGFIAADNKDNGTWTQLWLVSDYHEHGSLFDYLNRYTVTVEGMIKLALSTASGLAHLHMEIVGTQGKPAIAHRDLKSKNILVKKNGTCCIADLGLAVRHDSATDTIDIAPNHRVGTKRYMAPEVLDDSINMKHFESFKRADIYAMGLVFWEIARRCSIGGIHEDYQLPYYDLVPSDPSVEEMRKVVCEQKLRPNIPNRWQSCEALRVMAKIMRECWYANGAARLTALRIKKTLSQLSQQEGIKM
Experimental: Assay 2 (Alk5 Fluorescence Polarization Assay)
Kinase inhibitor compounds conjugated to fluorophores, can be used as fluorescent ligands to monitor ATP competitive binding of other compounds to a given kinase. The increase in depolarization of plane polarized light, caused by release of the bound ligand into solution, is measured as a polarization/anisotropy value. This protocol details the use of a rhodamine green-labelled ligand for assays using recombinant GST-ALK5 (residues 198-503).
Assay buffer components: 62.5 mM Hepes pH 7.5 (Sigma H-4034), 1 mM DTT (Sigma D-0632), 12.5 mM MgCl2 (Sigma M-9272), 1.25 mM CHAPS (Sigma C-3023). […]
ALK5 was added to assay buffer containing the above components and 1 nM of the rhodamine green-labelled ligand so that the final ALK5 concentration was 10 nM based on active site titration of the enzyme. […] The plates were read immediately on a LJL Acquest fluorescence reader (Molecular Devices, serial number AQ1048) with excitation, emission, and dichroic filters of 485 nm, 530 nm, and 505 nm, respectively. The fluorescence polarization for each well was calculated by the Acquest reader and then imported into curve fitting software for construction of concentration response curves. The normalized response was determined relative to the high controls (1 μl DMSO in column 12, rows A-D) and the low controls (1 μl of control compound in column 12, rows E-H). […]

IC50 ([1]; Homo sapiens, HepG2, read-out: TGF-β cellular activity): 413 nM
IC50 [2]: 26 nM
Compound: Cc1cccc(-c2[nH]nnc2-c2ccnc(-c3ccc(S(C)(=O)=O)cc3)c2)n1 [Example 1, 2-(4-Methanesulfonylphenyl)-4-(5-(6-methyl)-pyridin-2-yl-3H-[1,2,3]triazol-4-yl)-pyridine]

melting point: 110 °C
Compound: Cc1cccc(-c2nn[nH]c2-c2ccnc(-c3ccc(CN4CCOCC4)cc3)c2)n1 [Example 4, 4-(4-{4-[5-(6-methyl-pyridin-2-yl)-3H-[1,2,3]triazol-4-yl]-pyridin-2-yl}-benzyl)-morpholine]

Compound: O=C1C=CCC1 [CPO, Cyclopentenone, reference compound]
firefly and renilla luciferase activities (toxicity control) ([1]; 500 μM CPO with TGF-β, relative to TGF-β only): around 50%
